# Laboratory results taken from ChEMBL document CHEMBL1201862, “PubChem BioAssay data set” (2004).
#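 How tested: cells in 96-well plates exposed to compound for 48 hours at five concentrations. GI50 is the concentration that inhibits growth by half.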 Active and inactive are the calls of the source. No stated cut-off is given here; in the data, active = GI50 up to about 1.1 µM and inactive = higher.
# Tests used:
# Assay in all cases: NCI tumour cell line growth inhibition, 48 h
# HCT-15 = test system: HCT-15
# HT-29 = test system: HT-29
# U-251 = test system: U-251
# UO-31 = test system: UO-31
# KM12 = test system: KM12
# COLO 205 = test system: COLO 205
# SK-MEL-5 = test system: SK-MEL-5
# OVCAR-3 = test system: OVCAR-3
# SF-295 = test system: SF-295
# MDA-MB-231 = test system: MDA-MB-231
# LOX IMVI = test system: LOX IMVI
# PC-3 = test system: PC-3
# HOP-62 = test system: HOP-62
# TK-10 = test system: TK-10
# RPMI-8226 = test system: RPMI-8226
# DU-145 = test system: DU-145
# OVCAR-4 = test system: OVCAR-4
# RXF 393 = test system: RXF 393
# NCI-H226 = test system: NCI-H226
# ACHN = test system: ACHN
# SW-620 = test system: SW-620
# SNB-19 = test system: SNB-19
# MOLT-4 = test system: MOLT-4
# M14 = test system: M14
# SK-OV-3 = test system: SK-OV-3
# OVCAR-5 = test system: OVCAR-5
# Malme-3M = test system: Malme-3M
# BT-549 = test system: BT-549
# SF-268 = test system: SF-268
# MDA-N = test system: MDA-N
# HOP-92 = test system: HOP-92
# Hs-578T = test system: Hs-578T
# MCF7 = test system: MCF7
# SNB-75 = test system: SNB-75
# NCI-H23 = test system: NCI-H23
# HCC 2998 = test system: HCC 2998
# SK-MEL-2 = test system: SK-MEL-2
# NCI/ADR-RES = test system: NCI/ADR-RES
# SF-539 = test system: SF-539
# SK-MEL-28 = test system: SK-MEL-28
# CAKI-1 = test system: CAKI-1
# EKVX = test system: EKVX
# SR = test system: SR
# UACC-257 = test system: UACC-257
# MDA-MB-435 = test system: MDA-MB-435
# OVCAR-8 = test system: OVCAR-8
# HCT-116 = test system: HCT-116
# 786-0 = test system: 786-0
# HL-60 = test system: HL-60
# UACC-62 = test system: UACC-62
# NCI-H460 = test system: NCI-H460
# K562 = test system: K562
# SN12C = test system: SN12C
# T47D = test system: T47D
# CCRF-CEM = test system: CCRF-CEM
# NCI-H522 = test system: NCI-H522
# A549 = test system: A549
# A498 = test system: A498
# IGROV-1 = test system: IGROV-1
smiles,measurement,setting,value
COc1ccccc1NC(=S)N/N=C/c1ccccn1,GI50,HCT-15,227 nM
same,GI50,HT-29,< 10 nM (active)
same,GI50,U-251,120 nM (active)
same,GI50,UO-31,296 nM (active)
same,GI50,KM12,597 nM (active)
same,GI50,COLO 205,35.2 nM (active)
same,GI50,SK-MEL-5,252 nM (active)
same,GI50,OVCAR-3,< 15 nM (active)
same,GI50,SF-295,621 nM (active)
same,GI50,MDA-MB-231,< 16.6 nM (active)
same,GI50,LOX IMVI,92.7 nM (active)
same,GI50,PC-3,54 nM (active)
same,GI50,HOP-62,247 nM (active)
same,GI50,TK-10,367 nM (active)
same,GI50,RPMI-8226,65.8 nM (active)
same,GI50,DU-145,1880 nM (inactive)
same,GI50,OVCAR-4,619 nM (active)
same,GI50,RXF 393,10900 nM (inactive)
same,GI50,NCI-H226,2120 nM (inactive)
same,GI50,ACHN,110 nM (active)
same,GI50,SW-620,124 nM (active)
same,GI50,SNB-19,4170 nM (inactive)
same,GI50,MOLT-4,11.5 nM (active)
same,GI50,M14,69.2 nM (active)
same,GI50,SK-OV-3,446 nM (active)
same,GI50,OVCAR-5,288 nM (active)
same,GI50,Malme-3M,193 nM (active)
same,GI50,BT-549,1770 nM (inactive)
same,GI50,SF-268,191 nM (active)
same,GI50,MDA-N,1290 nM (inactive)
same,GI50,HOP-92,1260 nM (inactive)
same,GI50,Hs-578T,14300 nM (inactive)
same,GI50,MCF7,50.4 nM (active)
same,GI50,SNB-75,3370 nM (inactive)
same,GI50,NCI-H23,74.6 nM (active)
same,GI50,HCC 2998,2370 nM (inactive)
same,GI50,SK-MEL-2,2540 nM (inactive)
same,GI50,NCI/ADR-RES,25.3 nM (active)
same,GI50,SF-539,910 nM (active)
same,GI50,SK-MEL-28,1560 nM (inactive)
same,GI50,CAKI-1,81.7 nM (active)
same,GI50,EKVX,293 nM (active)
same,GI50,SR,710 nM (active)
same,GI50,UACC-257,< 31.8 nM (active)
same,GI50,MDA-MB-435,1610 nM (inactive)
same,GI50,OVCAR-8,131 nM (active)
same,GI50,HCT-116,< 20.4 nM (active)
same,GI50,786-0,157 nM (active)
same,GI50,HL-60,21.4 nM (active)
same,GI50,UACC-62,466 nM (active)
same,GI50,NCI-H460,495 nM (active)
same,GI50,K562,< 18.7 nM (active)
same,GI50,SN12C,740 nM (active)
same,GI50,T47D,86.7 nM (active)
same,GI50,CCRF-CEM,276 nM (active)
same,GI50,NCI-H522,< 15.7 nM (active)
same,GI50,A549,564 nM (active)
same,GI50,A498,255 nM (active)
CCCCCCCC/C=C\CCCCCCC/C=C1/C[C@](/C=C/C(=O)OC)(CO)OC1=O,GI50,HCT-15,8410 nM
same,GI50,HT-29,7710 nM (inactive)
same,GI50,U-251,6030 nM (inactive)
same,GI50,UO-31,1770 nM (inactive)
same,GI50,KM12,10900 nM (inactive)
same,GI50,COLO 205,1570 nM (inactive)
same,GI50,SK-MEL-5,2840 nM (inactive)
same,GI50,OVCAR-3,11600 nM (inactive)
same,GI50,SF-295,2290 nM (inactive)
same,GI50,MDA-MB-231,3990 nM (inactive)
same,GI50,LOX IMVI,1600 nM (inactive)
same,GI50,PC-3,2580 nM (inactive)
same,GI50,HOP-62,3440 nM (inactive)
same,GI50,TK-10,2680 nM (inactive)
same,GI50,IGROV-1,11500 nM (inactive)
same,GI50,DU-145,9060 nM (inactive)
same,GI50,OVCAR-4,6580 nM (inactive)
same,GI50,RXF 393,14200 nM (inactive)
same,GI50,NCI-H226,5140 nM (inactive)
same,GI50,ACHN,3110 nM (inactive)
same,GI50,SW-620,2660 nM (inactive)
same,GI50,SNB-19,7160 nM (inactive)
same,GI50,MOLT-4,1300 nM (inactive)
same,GI50,M14,2050 nM (inactive)
same,GI50,SK-OV-3,10900 nM (inactive)
same,GI50,OVCAR-5,7460 nM (inactive)
same,GI50,Malme-3M,2150 nM (inactive)
same,GI50,BT-549,5020 nM (inactive)
same,GI50,SF-268,6900 nM (inactive)
same,GI50,MDA-N,773 nM (active)
same,GI50,HOP-92,2400 nM (inactive)
same,GI50,Hs-578T,923 nM (active)
same,GI50,MCF7,7410 nM (inactive)
same,GI50,SNB-75,7660 nM (inactive)
same,GI50,NCI-H23,11200 nM (inactive)
same,GI50,HCC 2998,4180 nM (inactive)
same,GI50,SK-MEL-2,13500 nM (inactive)
same,GI50,NCI/ADR-RES,10400 nM (inactive)
same,GI50,SF-539,1010 nM (active)
same,GI50,SK-MEL-28,2770 nM (inactive)
same,GI50,CAKI-1,1290 nM (inactive)
same,GI50,EKVX,9730 nM (inactive)
same,GI50,SR,3920 nM (inactive)
same,GI50,UACC-257,15600 nM (inactive)
same,GI50,MDA-MB-435,904 nM (active)
same,GI50,OVCAR-8,6650 nM (inactive)
same,GI50,HCT-116,4560 nM (inactive)
same,GI50,786-0,908 nM (active)
same,GI50,HL-60,1630 nM (inactive)
same,GI50,UACC-62,9350 nM (inactive)
same,GI50,NCI-H460,2150 nM (inactive)
same,GI50,K562,561 nM (active)
same,GI50,SN12C,2860 nM (inactive)
same,GI50,T47D,7380 nM (inactive)
same,GI50,CCRF-CEM,1010 nM (active)
same,GI50,NCI-H522,5600 nM (inactive)
same,GI50,A549,2370 nM (inactive)
same,GI50,A498,8670 nM (inactive)
